The values that follow come from US11285156B2, “Substituted piperazines as KRAS G12C inhibitors” (Amgen Inc., priority 2018, dated 2022).

Assay [1] has as its system Phosphorylation of ERK1/2 in MIA PaCa-2 cells. As to the kind of experiment: Phospho-ERK1/2 MSD assay in MIA PaCa-2 cells. The assay is classed as cell-based. The following applies: read-out: p-ERK IC50 (2 h, MiaPaCa-2; μM), 2 h compound treatment, MIA PaCa-2 cells, EGF stimulated. Summed up:
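Phospho-ERK1/2 measured by MSD electrochemiluminescence kit in RIPA lysates of MIA PaCa-2 cells. Cells were treated with compound titrations for 2 or 4 h at 37 °C, 5% CO2, followed by a 10 min pulse of 10 ng/mL EGF.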

For assay [2], the target named is GDP-bound KRAS protein (aa 1-169), containing both G12C and C118A amino acid substitutions (Homo sapiens (Human), UniProt P01116, C118A/G12C). As to the kind of experiment: Coupled nucleotide exchange assay (SOS-mediated nucleotide exchange, AlphaScreen). It is filed as biochemical. Particulars: 5 min compound pre-incubation; for IC50: read-out: Coupled exchange IC50 (5 min; μM).

The subject of assay [3] is Phosphorylation of ERK1/2 in A549 cells. As to the kind of experiment: Phospho-ERK1/2 MSD assay in A549 cells. It is filed as cell-based. The following applies: read-out: p-ERK IC50 (2 h, A549; μM), 2 h compound treatment, A549 cells, EGF stimulated. The method in brief:
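MSD electrochemiluminescent read-out of phospho-ERK1/2 in RIPA lysates. Cells in RPMI 1640 with 10% FBS received titrated compound for 2 or 4 h, then 10 ng/mL EGF for 10 min before ice-cold PBS wash and lysis.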

SMILES strings stand for the structures. Where two headings read alike, the source gives them in different places.

GDP-bound KRAS protein (aa 1-169), containing both G12C and C118A amino acid substitutions, sequence (P01116 other isoform, or with tags, fused parts or gaps G12C/C118A): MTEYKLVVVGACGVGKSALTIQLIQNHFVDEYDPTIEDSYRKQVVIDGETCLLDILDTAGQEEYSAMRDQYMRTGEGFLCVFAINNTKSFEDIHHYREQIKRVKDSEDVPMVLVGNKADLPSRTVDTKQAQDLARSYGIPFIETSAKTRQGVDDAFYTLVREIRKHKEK

Regarding `C=CC(=O)N1CCN(c2nc(=O)n(CC(C)(C)C)c3nc(-c4ccccc4F)c(Cl)cc23)[C@@H](C)C1` [Example 106-2, 6-Chloro-1-(2,2-dimethylpropyl)-7-(2-fluorophenyl)-4-[(2S)-2-methyl-4-prop-2-enoyl-piperazin-1-yl]pyrido[2,3-d]pyrimidin-2-one], the IC50 in assay [1] (Homo sapiens, MIA PaCa-2, 2 h) was 5.31 µM; in assay [2] it was 1.01 µM; in assay [3] (Homo sapiens, A549, 2 h) it was more than 7.5 µM.
The corresponding values for `C=CC(=O)N1C[C@H](C)N(c2nc(=O)n(-c3c(C(C)C)ccnc3C(C)C)c3nc(-c4ccccc4C(F)(F)F)c(Cl)cc23)C[C@H]1C` (single isomer, unassigned) [Example 124-3] are 0.032 µM, 0.028 µM and more than 7.5 µM.
`C=CC(=O)N1CCN(c2nc(=O)n(-c3c(C(C)C)ccnc3C(C)C)c3nc(-c4ccccc4C)c(Cl)cc23)[C@@H](C)C1` (single isomer, unassigned) [Example 125-10]: the values for the IC50 in assay [1], in assay [2] and in assay [3] were 0.068 µM, 0.032 µM and more than 7.5 µM, respectively.
The corresponding values for `C=CC(=O)N1C[C@H](C)N(c2nc(=O)n(-c3c(C)ccnc3C(C)C)c3nc(C4CC4(C)C)c(Cl)cc23)C[C@H]1C` (stereo partly drawn) [93-2] are 0.558 µM, 0.305 µM and more than 7.5 µM.
With `C=CC(=O)N1C[C@H](C)N(c2nc(=O)n(-c3c(C)nc(F)nc3C(C)C)c3nc(-c4ccccc4F)c(Cl)cc23)C[C@H]1C` (single isomer, unassigned) [Example 200], the IC50 was 0.094 µM in assay [1] (Homo sapiens, MIA PaCa-2, 2 h) and more than 7.5 µM in assay [3] (Homo sapiens, A549, 2 h). For the same molecule, in assay [2], the “Coupled exchange IC50 (5 min; μM)” value came to 0.03 µM.
Consider `C=CC(=O)N1C[C@H](C)N(c2nc(=O)n(-c3c(C)ccnc3C(C)C)c3nc(-c4c(F)cccc4NC(=O)C4CC4)c(Cl)cc23)C[C@H]1C` (atropisomer, axis not shown; (M)) [Example 129-9, (M)-N-[2-[6-Chloro-4-[(2S,5R)-2,5-dimethyl-4-prop-2-enoyl-piperazin-1-yl]-1-(2-isopropyl-4-methyl-3-pyridyl)-2-oxo-pyrido[2,3-d]pyrimidin-7-yl]-3-fluoro-phenyl]cyclopropanecarboxamide], for which the IC50 was 0.048 µM in assay [1] (Homo sapiens, MIA PaCa-2, 2 h); 0.008 µM in assay [2]; more than 7.5 µM in assay [3] (Homo sapiens, A549, 2 h).
The corresponding values for `C=CC(=O)N1C[C@H](C)N(c2nc(=O)n(-c3c(C(C)C)ccnc3C(C)C)c3nc(-c4ccccc4C)c(Cl)cc23)C[C@H]1C` (single isomer, unassigned) [Example 124-2] are 0.032 µM, 0.033 µM and more than 7.5 µM.
Consider `C=CC(=O)N1C[C@H](C)N(c2nc(=O)n(-c3c(C)ccnc3C(C)C)c3nc(-c4c(F)cccc4NC(=O)C(F)F)c(Cl)cc23)C[C@H]1C` (atropisomer, axis not shown; (M)) [Example 129-10, (M)-N-[2-[6-Chloro-4-[(2S,5R)-2,5-dimethyl-4-prop-2-enoyl-piperazin-1-yl]-1-(2-isopropyl-4-methyl-3-pyridyl)-2-oxo-pyrido[2,3-d]pyrimidin-7-yl]-3-fluoro-phenyl]-2,2-difluoro-acetamide], for which the IC50 is 0.049 µM in assay [1] (Homo sapiens, MIA PaCa-2, 2 h); 0.041 µM in assay [2]; more than 7.5 µM in assay [3] (Homo sapiens, A549, 2 h).
The corresponding values for `C=CC(=O)N1C[C@H](C)N(c2nc(=O)n(-c3c(C)cc(CN4CCCC4)nc3C(C)C)c3nc(-c4ccccc4F)c(Cl)cc23)C[C@H]1C` [Example 121-2, 6-Chloro-4-[(2S,5R)-2,5-dimethyl-4-prop-2-enoyl-piperazin-1-yl]-7-(2-fluorophenyl)-1-[2-isopropyl-4-methyl-6-(pyrrolidin-1-ylmethyl)-3-pyridyl]pyrido[2,3-d]pyrimidin-2-one] are 0.081 µM, 0.096 µM and more than 7.5 µM.
For the molecule `C=CC(=O)N1C[C@H](C)N(c2nc(=O)n(-c3c(C)cc(CN(C)C)cc3C(C)C)c3nc(-c4ccccc4F)c(Cl)cc23)C[C@H]1C` (single isomer, unassigned) [Example 121-3], the IC50 in assay [1] (Homo sapiens, MIA PaCa-2, 2 h) was 0.027 µM; in assay [3] (Homo sapiens, A549, 2 h), more than 7.5 µM. Moreover, the “Coupled exchange IC50 (5 min; μM)” value in assay [2] worked out at 0.066 µM.
As to `C=CC(=O)N1C[C@H](C)N(c2nc(=O)n(-c3c(C)ccnc3C(C)C)c3nc(-c4ccccc4S(N)(=O)=O)c(Cl)cc23)C[C@H]1C` (atropisomer, axis not shown; (M)) [Example 92-33, (M)-2-[6-Chloro-4-[(2S,5R)-2,5-dimethyl-4-prop-2-enoyl-piperazin-1-yl]-1-(2-isopropyl-4-methyl-3-pyridyl)-2-oxo-pyrido[2,3-d]pyrimidin-7-yl] benzenesul-fonamide], the IC50 is 0.216 µM in assay [1] (Homo sapiens, MIA PaCa-2, 2 h); 0.113 µM in assay [2]; more than 7.5 µM in assay [3] (Homo sapiens, A549, 2 h).
In the case of `C=CC(=O)N1C[C@H](C)N(c2nc(=O)n(-c3c(C)nc(Cl)nc3C(C)C)c3nc(-c4ccccc4F)c(Cl)cc23)C[C@H]1C` (single isomer, unassigned) [Example 191-2], the IC50 in assay [1] (Homo sapiens, MIA PaCa-2, 2 h) was 0.079 µM; in assay [3] (Homo sapiens, A549, 2 h), more than 7.5 µM. The “Coupled exchange IC50 (5 min; μM)” value in assay [2] is 0.079 µM.
For the molecule `C=CC(=O)N1C[C@H](C)N(c2nc(=O)n(-c3c(C)ccnc3C(C)C)c3nc(-c4ccccc4C(=O)O)c(Cl)cc23)C[C@H]1C` (atropisomer, axis not shown; (M)) [Example 92-29, (M)-2-[6-Chloro-4-[(2S,5R)-2,5-dimethyl-4-prop-2-enoyl-piperazin-1-yl]-1-(2-isopropyl-4-methyl-3-pyridyl)-2-oxo-pyrido[2,3-d]pyrimidin-7-yl]benzoic acid], the IC50 in assay [1] (Homo sapiens, MIA PaCa-2, 2 h) is 10 µM; in assay [2], 0.139 µM; in assay [3] (Homo sapiens, A549, 2 h), more than 7.5 µM.
For `C=CC(=O)N1C[C@H](C)N(c2nc(=O)n(-c3c(C(C)C)ncnc3C(C)C)c3nc(-c4ccc(F)cc4F)c(F)cc23)C[C@H]1C` [Example 153, 7-(2,4-Difluorophenyl)-1-(4,6-diisopropylpyrimidin-5-yl)-4-[(2S,5R)-2,5-dimethyl-4-prop-2-enoyl-piperazin-1-yl]-6-fluoro-pyrido[2,3-d]pyrimidin-2-one], the IC50 is 0.264 µM in assay [1] (Homo sapiens, MIA PaCa-2, 2 h); 0.38 µM in assay [2]; more than 7.5 µM in assay [3] (Homo sapiens, A549, 2 h).
Take `C=CC(=O)N1C[C@H](C)N(c2nc(=O)n(-c3c(C(C)C)cnn3C(C)C)c3nc(-c4ccccc4F)c(Cl)cc23)C[C@H]1C` (single isomer, unassigned) [Example 100-1-2]: the IC50 in assay [1] was 0.098 µM; in assay [2] it was 0.062 µM; in assay [3], more than 7.5 µM.
Consider `C=CC(=O)N1C[C@H](C)N(c2nc(=O)n(-c3c(C)ccnc3C(C)C)c3nc(-c4c(F)cccc4C(N)=O)c(Cl)cc23)C[C@H]1C` (atropisomer, axis not shown; (M)) [Example 92-24, (M)-2-[6-Chloro-4-[(2S,5R)-2,5-dimethyl-4-prop-2-enoyl-piperazin-1-yl]-1-(2-isopropyl-4-methyl-3-pyridyl)-2-oxo-pyrido[2,3-d]pyrimidin-7-yl]-3-fluoro-benzamide], for which the IC50 was 0.116 µM in assay [1] (Homo sapiens, MIA PaCa-2, 2 h); 0.019 µM in assay [2]; more than 7.5 µM in assay [3] (Homo sapiens, A549, 2 h).
The corresponding values for `C=CC(=O)N1C[C@H](C)N(c2nc(=O)n(-c3c(C)ccnc3C(C)C)c3nc(-c4cc(Br)ccc4F)c(Cl)cc23)C[C@H]1C` (atropisomer, axis not shown; (M)) [Example 92-37, (M)-7-(5-Bromo-2-fluoro-phenyl)-6-chloro-4-[(2S,5R)-2,5-dimethyl-4-prop-2-enoyl-piperazin-1-yl]-1-(2-isopropyl-4-methyl-3-pyridyl)pyrido [2,3-d]pyrimidin-2-one] are 0.06 µM, 0.048 µM and more than 7.5 µM.
On to `C=CC(=O)N1C[C@H](C)N(c2nc(=O)n(-c3c(C)ccnc3C(C)C)c3nc(-c4cccc(F)c4Cl)c(Cl)cc23)C[C@H]1C` (atropisomer, axis not shown; (M)) [Example 92-64, (M)-6-Chloro-7-(2-chloro-3-fluoro-phenyl)-4-[(2S,5R)-2,5-dimethyl-4-prop-2-enoyl-piperazin-1-yl]-1-(2-isopropyl-4-methyl-3-pyridyl)pyrido [2,3-d]pyrimidin-2-one], for which the IC50 in assay [1] (Homo sapiens, MIA PaCa-2, 2 h) is 0.044 µM; in assay [2] it was 0.039 µM; in assay [3] (Homo sapiens, A549, 2 h), more than 7.5 µM.
Take `C=CC(=O)N1C[C@H](C)N(c2nc(=O)n(-c3c(C)ccnc3C(C)C)c3nc(-c4c(F)cccc4NC(C)=O)c(Cl)cc23)C[C@H]1C` (atropisomer, axis not shown; (M)) [Example 129-1, (M)-N-[2-[6-Chloro-4-[(2S,5R)-2,5-dimethyl-4-prop-2-enoyl-piperazin-1-yl]-1-(2-isopropyl-4-methyl-3-pyridyl)-2-oxo-pyrido[2,3-d]pyrimidin-7-yl]-3-fluoro-phenyl]acetamide]: the values for the IC50 in assay [1], in assay [2] and in assay [3] were 0.124 µM, 0.054 µM and more than 7.5 µM, respectively.
On to `C=CC(=O)N1C[C@H](C)N(c2nc(=O)n(-c3c(C(C)C)ncnc3C(C)C)c3nc(-c4ccccc4F)c(F)cc23)C[C@H]1C` [Example 101-2, 1-(4,6-Diisopropylpyrimidin-5-yl)-4-[(2S,5R)-2,5-dimethyl-4-prop-2-enoyl-piperazin-1-yl]-6-fluoro-7-(2-fluorophenyl)pyrido [2,3-d]pyrimidin-2-one], for which the IC50 in assay [1] (Homo sapiens, MIA PaCa-2, 2 h) was 0.116 µM; in assay [2] it was 0.16 µM; in assay [3] (Homo sapiens, A549, 2 h), more than 7.5 µM.
